Experimental data reported in paper PMC12525728, “Safety, Pharmacokinetics, Translational and Molecular Mechanistic Insights on the Prostate Cancer Recurrence Suppressor Pseurotin A” (Molecules, 2025).

Legend:
Format in all cases: in vivo
Swiss albino mice = assay: 90-day daily oral dosing sub-chronic toxicity study (body weight, behavior, organ weight, histology); details: for Relative organ weight, Brain / Relative organ weight, Heart / Relative organ weight, Kidneys / Relative organ weight, Liver / Relative organ weight, Lungs / Relative organ weight, Spleen: mean ± SD
Method: (§1) For the 90-day daily oral dosing sub-chronic toxicity study, twenty male and twenty female healthy 8-week-old Swiss albino mice were randomly selected and randomized to […] (n = 5/sex/group). Mice received free access to purified drinking water and high-fat diet (HFD) pelleted rodent chow (11.4% total fat, no. 7004, Envigo/Teklad, Madison, WI, USA) until the day before sacrifice, at which time they were fasted for 8 h and allowed only free access to drinking water. Daily doses of PsA (10, 40, 80 mg/kg body weight) were administered to the mice formulated in <5% DMSO (Mediatech Inc., Manassas, VA, USA) and <0.2% Tween 80 (Croda Inc., Princeton, NJ, USA) at a volume not exceeding 1% of body weight by metal oral gavage (2 mm diameter with stainless steel bite protector, 18-gauge, 3.81 cm long). […] The mice were observed weekly until the completion of the study. The body weights of the mice were measured in grams using a Scout^TM Pro (Ohaus Corp., Pine Brook, NJ, USA) on day 0, 4, 8, 11, 14, 21, 28, 35, 42, 49, 56, 63, 70, 77, 83, and 90 after initial treatment. On day 90, all mice were anesthetized using isoflurane (USP-vaporizer method, Matrix VIP-3000, Covetrus, Dublin, OH, USA, exposure of animals in an anesthesia chamber at 3% isoflurane vaporization rate. Exposure time 2 min). Mice were then euthanized by cervical dislocation according to the 2020 AVMA Guidelines on Euthanasia and dissected. Mice organs (brain, liver, kidney, heart, lungs, spleen) were excised and weighed for histopathological examination. The organs were stored in 10% neutral buffered formalin (Avantor Science Central, Allentown, PA, USA) for 24 h and then transferred to 70% ethanol (AAPER ALCOHOL, Shelbyville, KY, USA). This study was performed following the OECD guideline 408 for the testing of chemicals.
The experimental animals’ organs were carefully excised and quickly fixed in 10% neutral buffered formalin for 24 h before being transferred to 70% ethanol. The organs were embedded in paraffin before sectioning and staining with hematoxylin and eosin (H&E). All sectioning and staining were conducted at the AML Laboratories (Jacksonville, FL, USA). The paraffin-embedded tissues were sliced into 5 µm-thick sections before being mounted on a positively charged slide. The 5 µm-thick sections were then dewaxed using xylene, rinsed using 80–95% ethanol, and rehydrated using H2O. They were subsequently stained with H&E before being dehydrated again using 80–95% ethanol to xylene.
Results for the hematological and biochemical parameters were analyzed separately by One-way Analysis of Variance (ANOVA), followed by multiple comparisons with Dunnett’s test. All statistical analyses were performed using GraphPad Prism version 8 software (San Diego, CA, USA). Data in this study were expressed as a mean ± SD (standard deviation) and mean ± SEM (standard error of mean). A probability value of <0.05 was considered statistically significant (* p < 0.05; ** p < 0.01; and *** p < 0.001).

[1] = tested on: HFD-fed Swiss albino mice; assay: Systemic cholesterol monitoring assay in HFD-fed mice, 90-day oral dosing; details: 90 days; for reduction of HFD-induced hypercholesterolemia relative to the control: female; for plasma cholesterol relative reduction versus the control group: male
Method: Plasmatic cholesterol concentrations in mice were determined using a total cholesterol kit (EnzyChrom^TM Cholesterol Assay Kit ECCH-100 BioAssay Systems, Hayward, CA, USA), adhering to the manufacturer’s instructions. Colorimetric quantitation was measured at 340 nm using a Synergy 2 microplate reader (BioTek Instruments Inc., Winooski, VT, USA). Blood was collected through tail vein extraction on the day before treatment, day 35, and day 90. Blood was quickly collected into green-topped Lithium Heparin 400 µL blood collection tubes (BD Microtainer REF# 365965 Becton, Dickinson and Company, Franklin Lakes, NJ, USA), centrifuged at 13,000× g for 10 min, and the upper layer of plasma was transferred to 1.5 mL Eppendorf tubes (Thermo Fisher Scientific, Waltham, MA, USA) and stored at −20 °C until analysis.
as §1

[2] = Pharmacokinetics study in Swiss albino mice; details: following oral dosing
[3] = female, 10mg/kg daily oral 90 days
[4] = female, 40mg/kg daily oral 90 days
[5] = female, 80mg/kg daily oral 90 days
[6] = male, 10mg/kg daily oral 90 days
[7] = male, 40mg/kg daily oral 90 days
[8] = male, 80mg/kg daily oral 90 days

Structure (SMILES): CC/C=C\[C@H](O)[C@H](O)C1=C(C)C(=O)[C@]2(O1)C(=O)N[C@@](OC)(C(=O)c1ccccc1)[C@@H]2O [PsA, pseurotin A]
- behavioral, neuromuscular and autonomic responses (Swiss albino mice; daily oral doses over 90 days): no observable effects
- Relative organ weight, Brain (Swiss albino mice; [3]): 438.5 ± 18.9
- Relative organ weight, Heart (Swiss albino mice; [3]): 197.7 ± 33.5
- Relative organ weight, Kidneys (Swiss albino mice; [3]): 475.9 ± 31.8
- Relative organ weight, Liver (Swiss albino mice; [3]): 1218 ± 31.6
- Relative organ weight, Lungs (Swiss albino mice; [3]): 211.7 ± 40.2
- Relative organ weight, Spleen (Swiss albino mice; [3]): 106.3 ± 48.4
- Relative organ weight, Brain (Swiss albino mice; [4]): 355.1 ± 25.2
- Relative organ weight, Heart (Swiss albino mice; [4]): 186.2 ± 12.3
- Relative organ weight, Kidneys (Swiss albino mice; [4]): 470.4 ± 87.8
- Relative organ weight, Liver (Swiss albino mice; [4]): 1311 ± 135.7
- Relative organ weight, Lungs (Swiss albino mice; [4]): 229.0 ± 37.1
- Relative organ weight, Spleen (Swiss albino mice; [4]): 125.1 ± 22.6
- Relative organ weight, Brain (Swiss albino mice; [5]): 376.7 ± 47.4
- Relative organ weight, Heart (Swiss albino mice; [5]): 231.1 ± 24.4
- Relative organ weight, Kidneys (Swiss albino mice; [5]): 461.9 ± 20.6
- Relative organ weight, Liver (Swiss albino mice; [5]): 1369 ± 146.3
- Relative organ weight, Lungs (Swiss albino mice; [5]): 236.9 ± 66.2
- Relative organ weight, Spleen (Swiss albino mice; [5]): 109.7 ± 20.2
- average heart weight versus vehicle control (Swiss albino mice; male 10 mg/kg and 40 mg/kg groups, 90 days): significant decrease
- body weight versus vehicle control (Swiss albino mice; male and female, 10, 40, 80 mg/kg daily oral 90 days, sixteen time points): did not show any significant changes
- Relative organ weight, Heart (Swiss albino mice; [6]): 248.1 ± 54.6
- Relative organ weight, Kidneys (Swiss albino mice; [6]): 684.7 ± 41.0
- Relative organ weight, Liver (Swiss albino mice; [6]): 1881 ± 134.3
- Relative organ weight, Lungs (Swiss albino mice; [6]): 288.8 ± 62.4
- Relative organ weight, Spleen (Swiss albino mice; [6]): 114.7 ± 21.4
- Relative organ weight, Brain (Swiss albino mice; [7]): 413.6 ± 54.5
- Relative organ weight, Heart (Swiss albino mice; [7]): 261.7 ± 25.2
- Relative organ weight, Kidneys (Swiss albino mice; [7]): 747.5 ± 92.3
- Relative organ weight, Liver (Swiss albino mice; [7]): 1869 ± 295.8
- Relative organ weight, Lungs (Swiss albino mice; [7]): 302.1 ± 23.5
- Relative organ weight, Spleen (Swiss albino mice; [7]): 118.5 ± 3.9
- Relative organ weight, Brain (Swiss albino mice; [8]): 409.2 ± 28.3
- Relative organ weight, Heart (Swiss albino mice; [8]): 320.8 ± 58.9
- Relative organ weight, Kidneys (Swiss albino mice; [8]): 673.7 ± 50.1
- Relative organ weight, Liver (Swiss albino mice; [8]): 1946 ± 272.4
- Relative organ weight, Lungs (Swiss albino mice; [8]): 209.9 ± 61.0
- Relative organ weight, Spleen (Swiss albino mice; [8]): 108.7 ± 12.1
- organ histology (liver, lungs, kidneys, heart, brain) versus vehicle control (Swiss albino mice; up to 80 mg/kg, 90-day dosing, H&E): no structural or morphological differences
- reduction of HFD-induced hypercholesterolemia relative to the control ([1]; 10 mg/kg daily oral): −80.7%
- reduction of HFD-induced hypercholesterolemia relative to the control ([1]; 40 mg/kg daily oral): −92.9%
- reduction of HFD-induced hypercholesterolemia relative to the control ([1]; 80 mg/kg daily oral): −85.5%
- plasma cholesterol relative reduction versus the control group ([1]; 10 mg/kg daily oral): −96.1%
- plasma cholesterol relative reduction versus the control group ([1]; 40 mg/kg daily oral): −107.3%
- plasma cholesterol relative reduction versus the control group ([1]; 80 mg/kg daily oral): −116.7%
- plasma detectability by validated HPLC method [2]: not detectable in the plasma
